# Experiments:
# Escherichia coli [1] = assay: Antibacterial activity against Escherichia coli ATCC 25922 assessed as inhibition of bacterial growth incubated for 20 hrs in presence of MgCl2 by broth microdilution method (reference value: 16 microM); assay type: functional
# Klebsiella pneumoniae = assay: Antibacterial activity against Klebsiella pneumoniae ATCC 700603 assessed as inhibition of bacterial growth incubated for 20 hrs by broth microdilution method; assay type: functional
# [2] = Stability in mouse serum assessed as half life at 10 mM measured upto 24 hrs by RP-HPLC analysis; assay type: ADME, cell-free
# Erythrocyte = assay: Hemolytic activity in mouse erythrocytes assessed as 10% hemolysis incubated for 1 hr by absorbance based analysis; assay type: toxicity, cell-based
# [3] = Therapeutic index, ratio of MHC10 for hemolytic activity in mouse erythrocytes preincubated with 10% mouse serum for 6 hrs to MIC for Escherichia coli ATCC 25922 preincubated with 10% mouse serum for 6 hrs; assay type: toxicity, cell-based
# Staphylococcus aureus [4] = assay: Antibacterial activity against Staphylococcus aureus ATCC 25923 assessed as inhibition of bacterial growth incubated for 20 hrs by broth microdilution method; assay type: functional
# Staphylococcus aureus [5] = assay: Antibacterial activity against Staphylococcus aureus ATCC 25923 assessed as inhibition of bacterial growth incubated for 20 hrs in presence of FeCl3 by broth microdilution method (reference value: 8 microM); assay type: functional
# Staphylococcus aureus [6] = assay: Antibacterial activity against Staphylococcus aureus ATCC 25923 assessed as inhibition of bacterial growth incubated for 20 hrs in presence of KCl by broth microdilution method (reference value: 8 microM); assay type: functional
# Escherichia coli [7] = assay: Antibacterial activity against Escherichia coli ATCC 25922 assessed as inhibition of bacterial growth incubated for 20 hrs by broth microdilution method; assay type: functional
# Staphylococcus aureus [8] = assay: Antibacterial activity against Staphylococcus aureus ATCC 25923 assessed as inhibition of bacterial growth by measuring fold increase in MIC incubated for 20 hrs in presence of NaCl by broth microdilution method relative to control; assay type: functional
# Escherichia coli [9] = assay: Antibacterial activity against Escherichia coli ATCC 25922 assessed as inhibition of bacterial growth preincubated with 10% mouse serum for 6 hrs and measured after 20 hrs by broth microdilution method; assay type: functional; conditions: time 26 hrs
# Staphylococcus aureus [10] = assay: Antibacterial activity against Staphylococcus aureus ATCC 25923 assessed as inhibition of bacterial growth incubated for 20 hrs in presence of NaCl by broth microdilution method (reference value: 8 microM); assay type: functional
# Staphylococcus aureus [11] = assay: Antibacterial activity against Staphylococcus aureus ATCC 25923 assessed as inhibition of bacterial growth by measuring fold increase in MIC incubated for 20 hrs in presence of MgCl2 by broth microdilution method relative to control; assay type: functional
# [12] = Therapeutic index, ratio of MHC10 for hemolytic activity in mouse erythrocytes preincubated with 10% mouse serum for 6 hrs to MIC for Staphylococcus aureus ATCC 25923 preincubated with 10% mouse serum for 6 hrs; assay type: toxicity, cell-based
# Staphylococcus aureus [13] = assay: Antibacterial activity against Staphylococcus aureus ATCC 25923 assessed as inhibition of bacterial growth by measuring fold increase in MIC incubated for 20 hrs in presence of ZnCl2 by broth microdilution method relative to control; assay type: functional
# Escherichia coli [14] = assay: Antibacterial activity against Escherichia coli ATCC 25922 assessed as inhibition of bacterial growth preincubated with 10% mouse serum for 1 hr and measured after 20 hrs by broth microdilution method; assay type: functional; conditions: time 21 hrs
# [15] = Hemolytic activity in mouse erythrocytes at 256 uM preincubated for 1 to 6 hr with 10% mouse serum and measured after 1 hr by absorbance based analysis; assay type: toxicity, cell-based, Erythrocyte; conditions: time 1-7 hrs, read-out: Activity
# [16] = Therapeutic index, ratio of MHC10 for hemolytic activity in mouse erythrocytes preincubated with 10% mouse serum for 1 hr to MIC for Escherichia coli ATCC 25922 preincubated with 10% mouse serum for 1 hr; assay type: toxicity, cell-based
# Pseudomonas aeruginosa = assay: Antibacterial activity against Pseudomonas aeruginosa ATCC 27853 assessed as inhibition of bacterial growth incubated for 20 hrs by broth microdilution method; assay type: functional
# Staphylococcus aureus [17] = assay: Antibacterial activity against Staphylococcus aureus ATCC 25923 assessed as inhibition of bacterial growth incubated for 20 hrs in presence of ZnCl2 by broth microdilution method (reference value: 8 microM); assay type: functional
# Staphylococcus aureus [18] = assay: Antibacterial activity against Staphylococcus aureus ATCC 25923 assessed as inhibition of bacterial growth incubated for 20 hrs in presence of MgCl2 by broth microdilution method (reference value: 8 microM); assay type: functional
# [19] = Therapeutic index, ratio of MHC10 for hemolytic activity in mouse erythrocytes preincubated with 10% mouse serum for 1 hr to MIC for Staphylococcus aureus ATCC 25923 preincubated with 10% mouse serum for 1 hr; assay type: toxicity, cell-based
# Acinetobacter baumannii = assay: Antibacterial activity against Acinetobacter baumannii ATCC 19606 assessed as inhibition of bacterial growth incubated for 20 hrs by broth microdilution method; assay type: functional
# Escherichia coli [20] = assay: Antibacterial activity against Escherichia coli ATCC 25922 assessed as inhibition of bacterial growth incubated for 20 hrs in presence of NaCl by broth microdilution method (reference value: 16 microM); assay type: functional
# Escherichia coli [21] = assay: Antibacterial activity against Escherichia coli ATCC 25922 assessed as inhibition of bacterial growth incubated for 20 hrs in presence of KCl by broth microdilution method (reference value: 16 microM); assay type: functional
# Staphylococcus aureus [22] = assay: Antibacterial activity against Staphylococcus aureus ATCC 25923 assessed as inhibition of bacterial growth preincubated with 10% mouse serum for 6 hrs and measured after 20 hrs by broth microdilution method; assay type: functional; conditions: time 21 hrs
# Escherichia coli [23] = assay: Antibacterial activity against Escherichia coli ATCC 25922 assessed as inhibition of bacterial growth incubated for 20 hrs in presence of FeCl3 by broth microdilution method (reference value: 16 microM); assay type: functional
# Bacillus subtilis = assay: Antibacterial activity against Bacillus subtilis ATCC 23857 assessed as inhibition of bacterial growth incubated for 20 hrs by broth microdilution method; assay type: functional
# [24] = (§1) Cytotoxicity against HEK293T cells assessed as cell death measured after 1 hr by resazurin dye based analysis; assay type: toxicity, HEK-293T; conditions: human, HEK293T cells
# Staphylococcus aureus [25] = assay: Antibacterial activity against Staphylococcus aureus ATCC 25923 assessed as inhibition of bacterial growth by measuring fold increase in MIC incubated for 20 hrs in presence of KCl by broth microdilution method relative to control; assay type: functional
# Staphylococcus aureus [26] = assay: Antibacterial activity against Staphylococcus aureus ATCC 25923 assessed as inhibition of bacterial growth preincubated with 10% mouse serum for 1 hr and measured after 20 hrs by broth microdilution method; assay type: functional; conditions: time 21 hrs
# Staphylococcus aureus [27] = assay: Antibacterial activity against Staphylococcus aureus ATCC 25923 assessed as inhibition of bacterial growth by measuring fold increase in MIC incubated for 20 hrs in presence of FeCl3 by broth microdilution method relative to control; assay type: functional
# Escherichia coli [28] = assay: Antibacterial activity against Escherichia coli ATCC 25922 assessed as inhibition of bacterial growth incubated for 20 hrs in presence of ZnCl2 by broth microdilution method (reference value: 16 microM); assay type: functional
# [29] = Acute toxicity in male BALB/c mouse assessed as animal death at 16.3 to 24.5 mg/kg, ip administered as single dose and measured after 60 mins; assay type: organism-based; conditions: in vivo, 1 h, dose 16.3-24.5 mg/kg
# [30] = Systemic toxicity in male BALB/c mouse assessed as pathological changes in heart at 20.83 mg/kg, ip administered as single dose by H and E staining based analysis; assay type: organism-based; conditions: in vivo
# [31] = Acute toxicity in male BALB/c mouse assessed as eye closure at 16.3 to 24.5 mg/kg, ip administered as single dose and measured after 60 mins; assay type: organism-based; conditions: in vivo, 1 h, dose 16.3-24.5 mg/kg
# [32] = Acute toxicity in male BALB/c mouse assessed as convulsions at 16.3 to 24.5 mg/kg, ip administered as single dose and measured after 60 mins; assay type: organism-based; conditions: in vivo, 1 h, dose 16.3-24.5 mg/kg
# [33] = Systemic toxicity in male BALB/c mouse assessed as hemorrhage at 20.83 mg/kg, ip administered as single dose by H and E staining based analysis; assay type: organism-based; conditions: in vivo
# [34] = Systemic toxicity in male BALB/c mouse assessed as marked alveolar cavity wrinkling at 20.83 mg/kg, ip administered as single dose by H and E staining based analysis; assay type: organism-based; conditions: in vivo
# [35] = Systemic toxicity in male BALB/c mouse assessed as severe hepatocyte necrosis at 20.83 mg/kg, ip administered as single dose by H and E staining based analysis; assay type: organism-based; conditions: hepatocytes
# [36] = Systemic toxicity in male BALB/c mouse assessed as inflammatory cell infiltration at 20.83 mg/kg, ip administered as single dose by H and E staining based analysis; assay type: organism-based; conditions: in vivo
# [37] = Acute toxicity in ip dosed male BALB/c mouse administered as single dose; assay type: organism-based; conditions: in vivo, ip
# [38] = Acute toxicity in male BALB/c mouse assessed as mortality rate at 24.5 mg/kg, ip administered as single dose and measured after 120 mins relative to control; assay type: organism-based; conditions: in vivo, 2 h
# [39] = Acute toxicity in male BALB/c mouse assessed as respiratory asthenia at 16.3 to 24.5 mg/kg, ip administered as single dose and measured after 60 mins; assay type: organism-based; conditions: in vivo, 1 h, dose 16.3-24.5 mg/kg
# HEK-293T = assay: as §1; assay type: toxicity; conditions: human, hek-293t, 1 h
# [40] = mouse erythrocytes, read-out: TI
substance,measurement,setting,value
H-WWWWKRRRR-NH2,MIC,Escherichia coli [1],8 µM
same,MIC,Klebsiella pneumoniae,64 µM
same,half-life at 10000 µM,[2],1.42 h
same,MHC10,Erythrocyte,> 256 µM
same,selectivity ratio,[3]; [40],0.13
same,MIC,Staphylococcus aureus [4],8 µM
same,MIC,Staphylococcus aureus [5],8 µM
same,MIC,Staphylococcus aureus [6],8 µM
same,MIC,Escherichia coli [7],32 µM
same,fold change (FC),Staphylococcus aureus [8],<=2
same,MIC,Escherichia coli [9],8 µM
same,MIC,Staphylococcus aureus [10],8 µM
same,fold change (FC),Staphylococcus aureus [11],<=2
same,selectivity ratio,[12]; [40],0.13
same,fold change (FC),Staphylococcus aureus [13],<=2
same,MIC,Escherichia coli [14],2 µM
same,"hemolysis at 1 h, 256 µM",[15],< 10%
same,selectivity ratio,[16]; [40],0.5
same,MIC,Pseudomonas aeruginosa,8 µM
same,MIC,Staphylococcus aureus [17],8 µM
same,MIC,Staphylococcus aureus [18],8 µM
same,selectivity ratio,[19]; [40],0.5
same,MIC,Acinetobacter baumannii,32 µM
same,MIC,Escherichia coli [20],32 µM
same,MIC,Escherichia coli [21],8 µM
same,MIC,Staphylococcus aureus [22],8 µM
same,MIC,Escherichia coli [23],16 µM
same,MIC,Bacillus subtilis,8 µM
same,CC50 at 1 h,[24],> 128 µM
same,fold change (FC),Staphylococcus aureus [25],<=2
same,MIC,Staphylococcus aureus [26],2 µM
same,fold change (FC),Staphylococcus aureus [27],<=2
same,MIC,Escherichia coli [28],16 µM
POLYMYXIN B,Activity,[29],Toxic
same,Activity,[30],Non-Toxic
same,Activity,[31],Toxic
same,MHC10,Erythrocyte,> 256 µM
same,Activity,[32],Toxic
same,TI,[3]; erythrocytes,0.5
same,Activity,[33],Toxic
same,Activity,[34],Toxic
same,Activity,[35],Toxic
same,TI,[12]; erythrocytes,1
same,TI,[16]; erythrocytes,1
same,Activity,[36],Toxic
same,LD50,[37],20.83 mg/kg
same,TI,[19]; erythrocytes,1
same,Activity,[38],100%
same,Activity,[39],Toxic
same,CC50,HEK-293T,> 128 µM

# From ChEMBL document CHEMBL5500371, “Arginine and tryptophan-rich dendritic antimicrobial peptides that disrupt membranes for bacterial infection in vivo” (Eur J Med Chem, 2024)
